Measurements: patent US20230181746A1, “BENZOYLHYDRAZIDE-DERIVED HDAC DEGRADERS AS THERAPEUTICS FOR TREATING CANCER AND OTHER HUMAN DISEASES” (University of Florida Research Foundation, Inc., priority 2020, published 2023)

Experiments:
Type in all cases: cell-based
HDAC1 = HDAC1 (Homo sapiens, UniProt Q13547); experiment: HDAC1 protein level in breast cancer cell lines, Western blot; details: MDA-MB-468 cells, 14 h
Method: (§1) FIG. 3A: Western blot showing HDAC protein levels in MDA-MB-468 cells treated with the indicated concentration of XZ9002 for 14 h. FIG. 3B: pretreatment with 1 μM MG132, or 10 μM VHL032 for 1 h blocked the degradation of HDAC3 by XZ9002 {125 nM}. […] NC: XZ9002-NC. FIG. 3C: time-dependent experiment in MDA-MB-468 cells after treatment with 125 nM XZ9002 at the indicated time points. FIG. 3D: MDA-MB-468 cells were incubated with 125 nM of XZ9002 for 14 h followed by drug washout, and incubation of the cells in drug-free medium for an additional time. Data are presented as representative figures of two independent experiments.
The culture of the triple-negative breast cancer cell line MDA-MB-468 and the ER+ breast cancer cell line T47D was exposed to vehicle control (DMSO) and the indicated compounds at specified concentrations for 14 h. Cells were lysed for WB with antibodies against the indicated proteins. Antibodies against acetylated histones at specific sites (H3K27 and H4K5) and acetyl-lysine were used to assess levels of histone acetylation. Levels of HDAC3 were normalized against that of tubulin and % of HDAC3 protein levels in cells treated with the indicated compounds relative to that in DMSO control is shown.
Cell lines were obtained from ATCC and subsequently authenticated. […]

HDAC6 = target: T1, HDAC6 (Homo sapiens, UniProt Q9UBN7); experiment: HDAC6 protein level in MDA-MB-468 cells, Western blot; details: 14 h
T1 construct: endogenous in cells; host or cells: MDA-MB-468
T1 sequence (Q9UBN7 1-1215): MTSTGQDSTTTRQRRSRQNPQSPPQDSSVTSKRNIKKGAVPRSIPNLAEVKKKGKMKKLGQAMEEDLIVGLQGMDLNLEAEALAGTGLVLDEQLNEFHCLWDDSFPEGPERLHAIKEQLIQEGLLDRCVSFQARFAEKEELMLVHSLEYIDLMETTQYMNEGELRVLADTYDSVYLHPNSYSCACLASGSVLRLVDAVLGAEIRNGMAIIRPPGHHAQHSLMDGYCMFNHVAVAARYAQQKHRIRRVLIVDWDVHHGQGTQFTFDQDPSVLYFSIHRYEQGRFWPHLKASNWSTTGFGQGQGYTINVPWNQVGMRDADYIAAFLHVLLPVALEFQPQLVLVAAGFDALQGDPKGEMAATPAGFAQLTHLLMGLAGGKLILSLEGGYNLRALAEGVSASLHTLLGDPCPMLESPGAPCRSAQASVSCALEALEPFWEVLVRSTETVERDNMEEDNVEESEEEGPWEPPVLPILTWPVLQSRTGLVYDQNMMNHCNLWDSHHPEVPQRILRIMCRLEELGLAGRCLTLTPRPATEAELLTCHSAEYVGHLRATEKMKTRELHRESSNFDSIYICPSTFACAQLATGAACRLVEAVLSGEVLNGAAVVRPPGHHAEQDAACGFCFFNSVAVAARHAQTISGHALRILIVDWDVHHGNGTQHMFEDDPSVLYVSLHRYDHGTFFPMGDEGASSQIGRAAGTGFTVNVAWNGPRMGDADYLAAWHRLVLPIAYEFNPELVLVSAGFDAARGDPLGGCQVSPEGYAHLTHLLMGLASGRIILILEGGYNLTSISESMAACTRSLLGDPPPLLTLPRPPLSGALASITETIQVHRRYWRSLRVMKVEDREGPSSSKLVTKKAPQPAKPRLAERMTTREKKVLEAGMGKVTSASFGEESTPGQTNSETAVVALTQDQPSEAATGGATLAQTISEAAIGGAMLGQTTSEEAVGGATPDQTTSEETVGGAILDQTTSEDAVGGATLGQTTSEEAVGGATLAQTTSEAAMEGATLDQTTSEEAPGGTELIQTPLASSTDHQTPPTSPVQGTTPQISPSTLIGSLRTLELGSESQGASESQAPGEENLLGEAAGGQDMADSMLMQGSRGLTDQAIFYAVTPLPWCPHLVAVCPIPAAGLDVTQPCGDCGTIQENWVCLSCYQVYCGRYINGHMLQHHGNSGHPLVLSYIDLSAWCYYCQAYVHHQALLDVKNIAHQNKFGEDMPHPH
Method: as §1
Cell lines were obtained from ATCC and subsequently authenticated. Cells were cultured with DMEM supplemented with 10% bovine calf serum, penicillin to 10 units/mL, and streptomycin to 10 μg/mL. For viability assays, 5,000 cells/well were seeded in 96-well plates. Compounds at a specified concentration or DMSO were added 24 h later. Viability assays were performed 72 h after compound addition using the CellTiter-Glo reagents (Promega). For colony formation assay, cells (˜1,000 cells/well) were seeded in a 24-well plate in quadruplicates. At 24 h after seeding, DMSO, XZ9002, or XZ9002-NC were added at a specified concentration. […]

[1] = tested on: breast cancer cell lines MCF7, T47D, MDA-MB-468, HCC-1143 and BT479; experiment: Clonogenic growth assay, breast cancer cell lines; details: compared with XZ9002-NC
Method: FIGS. 8A-8B show the cellular activity of XZ9002. […] Cells were lysed for WB. The relative HDAC3 protein level in each sample is shown. […] The indicated BC cell lines were exposed to DMSO, XZ9002, or XZ9002-NC at the indicated concentrations. Colonies were fixed and stained.
Cell lines were obtained from ATCC and subsequently authenticated. Cells were cultured with DMEM supplemented with 10% bovine calf serum, penicillin to 10 units/mL, and streptomycin to 10 μg/mL. For viability assays, 5,000 cells/well were seeded in 96-well plates. Compounds at a specified concentration or DMSO were added 24 h later. Viability assays were performed 72 h after compound addition using the CellTiter-Glo reagents (Promega). For colony formation assay, cells (˜1,000 cells/well) were seeded in a 24-well plate in quadruplicates. At 24 h after seeding, DMSO, XZ9002, or XZ9002-NC were added at a specified concentration. Medium was replaced with freshly prepared medium containing DMSO, XZ9002 or XZ9002-NC every five days until visible colonies appeared, typically in 15 to 20 days after initial cell seeding. Cells were fixed with 4% paraformaldehyde for 15 min and stained with 2% methylene blue in 20% ethanol for 30 min to 1 h. The cells were washed twice with distilled water and dried in air. For western blotting, cell cultures were exposed to compounds as indicated in relevant figures. […]

Chain of HDAC1 (Q13547 whole entry): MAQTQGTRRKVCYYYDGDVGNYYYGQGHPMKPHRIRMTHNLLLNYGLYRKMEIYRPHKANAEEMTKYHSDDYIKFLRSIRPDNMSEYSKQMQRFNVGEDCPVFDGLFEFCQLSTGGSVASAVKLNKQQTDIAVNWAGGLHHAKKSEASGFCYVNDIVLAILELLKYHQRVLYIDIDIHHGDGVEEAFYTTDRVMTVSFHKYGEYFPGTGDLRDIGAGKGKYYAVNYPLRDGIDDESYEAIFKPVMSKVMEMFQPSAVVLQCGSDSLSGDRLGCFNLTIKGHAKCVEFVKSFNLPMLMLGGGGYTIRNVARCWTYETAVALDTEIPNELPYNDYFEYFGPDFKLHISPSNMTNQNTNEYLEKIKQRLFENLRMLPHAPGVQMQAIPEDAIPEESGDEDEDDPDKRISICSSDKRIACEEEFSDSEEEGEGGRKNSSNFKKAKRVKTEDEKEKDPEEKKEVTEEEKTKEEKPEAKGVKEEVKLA

With `CCCNNC(=O)c1ccc(-c2ccc(NC(=O)CCCCCCC(=O)N[C@H](C(=O)N3C[C@H](O)C[C@H]3C(=O)N[C@@H](C)c3ccc(-c4scnc4C)cc3)C(C)(C)C)cc2)cc1` [XZ9002, N^1—((S)-1-((2S,4R)-4-hydroxy-2-(((S)-1-(4-(4-methylthiazol-5-yl)phenyl)ethyl)carbamoyl)pyrrolidin-1-yl)-3,3-dimethyl-1-oxobutan-2-yl)-N^5-(4′-(2-propylhydrazine-1-carbonyl)-[1,1′-biphenyl]-4-yl)octanediamide] the “change in HDAC1 protein level” value (HDAC1) was “no significant changes”, the “change in HDAC6 protein level” value (HDAC6) was “no significant changes” and the “suppression of colony formation” value [1] was “more potent to suppress colony formation”.
